One experiment addresses CSF-1R (Homo sapiens, UniProt P07333). The experiment in a line: Peptide (non-phosphorylated) assay, fluorescence polarization competition immunoassay. Format: biochemical. Particulars: 0.7 nM CSF-1R, 308 μM SYEGNSYTFIDPTQ peptide, 1 mM ATP, 80 min; mean of at least three determinations; read-out: c-fms Peptide IC50. Summed up:
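Read-out is fluorescence polarization: after EDTA quench, anti-phosphotyrosine antibody plus PTK green tracer compete with the phosphorylated peptide for 30 min. The CSF-1R reaction itself ran 80 min at room temperature after ATP addition. DMSO (4%) wells served as controls, positive controls pre-treated with EDTA.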
(In general: Fluorescence polarisation rises when a labelled molecule tumbles more slowly, as on binding a larger partner.)
Chain of CSF-1R (P07333 20-972): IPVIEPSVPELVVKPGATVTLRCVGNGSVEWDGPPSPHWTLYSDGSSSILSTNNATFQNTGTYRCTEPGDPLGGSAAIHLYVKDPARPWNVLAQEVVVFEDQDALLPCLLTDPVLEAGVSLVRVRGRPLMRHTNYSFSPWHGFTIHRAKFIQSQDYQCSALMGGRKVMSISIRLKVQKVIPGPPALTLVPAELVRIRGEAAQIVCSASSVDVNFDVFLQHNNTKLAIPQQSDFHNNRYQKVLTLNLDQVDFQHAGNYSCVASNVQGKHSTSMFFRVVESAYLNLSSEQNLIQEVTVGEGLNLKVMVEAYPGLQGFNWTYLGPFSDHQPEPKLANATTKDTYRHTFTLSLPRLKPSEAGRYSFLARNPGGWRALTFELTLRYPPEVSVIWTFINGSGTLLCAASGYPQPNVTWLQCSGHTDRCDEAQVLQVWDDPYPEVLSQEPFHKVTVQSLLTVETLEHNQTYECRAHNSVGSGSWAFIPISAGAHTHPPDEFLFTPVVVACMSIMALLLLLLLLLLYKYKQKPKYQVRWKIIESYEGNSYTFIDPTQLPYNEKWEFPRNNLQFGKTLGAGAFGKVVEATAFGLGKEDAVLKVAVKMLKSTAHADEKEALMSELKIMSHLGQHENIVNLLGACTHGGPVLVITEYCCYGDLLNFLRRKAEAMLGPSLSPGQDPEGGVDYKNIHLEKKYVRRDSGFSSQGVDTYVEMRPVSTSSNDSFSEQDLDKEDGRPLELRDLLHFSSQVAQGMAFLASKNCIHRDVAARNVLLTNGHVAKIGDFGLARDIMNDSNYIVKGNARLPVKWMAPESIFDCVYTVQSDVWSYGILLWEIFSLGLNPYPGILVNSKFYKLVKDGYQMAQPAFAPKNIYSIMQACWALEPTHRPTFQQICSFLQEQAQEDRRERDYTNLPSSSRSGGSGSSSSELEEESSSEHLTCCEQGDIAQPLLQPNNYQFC
As usually defined, the IC50 is the concentration that inhibits the measured activity by half. With `CCc1ccc(-n2cc(C(=O)NOC)c(=O)c3cnc(Nc4ccc(C5CCN(CC(F)(F)F)CC5)cc4)nc32)cc1` [Cpd 188, 8-(4-ethyl-phenyl)-5-oxo-2-{4-[1-(2,2,2-trifluoro-ethyl)-piperidin-4-yl]-phenylamino}-5,8-dihydro-pyrido[2,3-d]pyrimidine-6-carboxylic acid methoxy-amide], the IC50 is 4.1 nM. As to `CONC(=O)c1cn(-c2ccc3c(c2)CCC3)c2nc(Nc3ccc(CCN(C)C4CCOCC4)cc3)ncc2c1=O` [Cpd 74, 8-indan-5-yl-2-(4-{2-[methyl-(tetrahydro-pyran-4-yl)-amino]-ethyl}-phenylamino)-5-oxo-5,8-dihydro-pyrido[2,3-d]pyrimidine-6-carboxylic acid methoxy-amide], the concentration for half-maximal inhibition (IC50) worked out at 0.62 nM. Still for that read-out and setting: as for `CCONC(=O)c1cn(-c2ccc3c(c2)CCC3)c2nc(Nc3ccc(C4CCN(C(C)=O)CC4)cc3)ncc2c1=O` [Cpd 70, 2-[4-(1-acetyl-piperidin-4-yl)-phenylamino]-8-indan-5-yl-5-oxo-5,8-dihydro-pyrido[2,3-d]pyrimidine-6-carboxylic acid ethoxy-amide], the figure is 1.7 nM; as for `CONC(=O)c1cn(-c2ccc3c(c2)CCC3)c2nc(Nc3ccc(CCN4CCN(C)CC4)cc3)ncc2c1=O` [Cpd 61, 8-indan-5-yl-2-{4-[2-(4-methyl-piperazin-1-yl)-ethyl]-phenylamino}-5-oxo-5,8-dihydro-pyrido[2,3-d]pyrimidine-6-carboxylic acid methoxy-amide], 0.68 nM; as for `CONC(=O)c1cn(-c2ccc(Cl)cc2)c2nc(Nc3ccc(CCN4CCN(C)CC4)cc3)ncc2c1=O` [Cpd 34, 8-(4-chloro-phenyl)-2-{4-[2-(4-methyl-piperazin-1-yl)-ethyl]-phenylamino}-5-oxo-5,8-dihydro-pyrido[2,3-d]pyrimidine-6-carboxylic acid methoxy-amide], 3.8 nM.

Turning to `CCc1ccc(-n2cc(C(=O)NOC)c(=O)c3cnc(Nc4cc(OC)c(OC)c(OC)c4)nc32)cc1` [Cpd 305, 8-(4-ethyl-phenyl)-5-oxo-2-(3,4,5-trimethoxy-phenylamino)-5,8-dihydro-pyrido[2,3-d]pyrimidine-6-carboxylic acid methoxy-amide], the IC50 turned out to be 0.7 nM. Same read-out and setting: as for `CONC(=O)c1cn(-c2ccc3c(c2)CCC3)c2nc(Nc3ccc(C4CCN(C(C)C)CC4)cc3)ncc2c1=O` [Cpd 111, 8-indan-5-yl-2-[4-(1-isopropyl-piperidin-4-yl)-phenylamino]-5-oxo-5,8-dihydro-pyrido[2,3-d]pyrimidine-6-carboxylic acid methoxy-amide], the figure is 0.58 nM; as for `CCc1ccc(-n2cc(C(=O)NOC)c(=O)c3cnc(Nc4ccc(CC(=O)NN(C)C)cc4)nc32)cc1` [Cpd 105, 2-[4-(N′,N′-dimethyl-hydrazinocarbonylmethyl)-phenylamino]-8-(4-ethyl-phenyl)-5-oxo-5,8-dihydro-pyrido[2,3-d]pyrimidine-6-carboxylic acid methoxy-amide], 1.4 nM.

As for `CCONC(=O)c1cn(C2CCCCC2)c2nc(Nc3ccc(N4CC(C)NC(C)C4)cc3)ncc2c1=O` (centres unmarked) [Cpd 25, 8-cyclohexyl-2-[4-(3,5-dimethyl-piperazin-1-yl)-phenylamino]-5-oxo-5,8-dihydro-pyrido[2,3-d]pyrimidine-6-carboxylic acid ethoxy-amide], the 50% inhibitory concentration (IC50) is 2.1 nM. On to `CONC(=O)c1cn(-c2ccc3c(c2)CCC3)c2nc(Nc3cccc(N4CCN(S(=O)(=O)C(F)(F)F)CC4)c3)ncc2c1=O` [Cpd 202, 8-indan-5-yl-5-oxo-2-[3-(4-trifluoromethanesulfonyl-piperazin-1-yl)-phenylamino]-5,8-dihydro-pyrido[2,3-d]pyrimidine-6-carboxylic acid methoxy-amide], for which the IC50 was 68 nM. Same read-out and setting: the value for `CN1CCN(CCc2ccc(Nc3ncc4c(=O)c(C(N)=O)cn(-c5ccc(Cl)cc5)c4n3)cc2)CC1` [Cpd 33, 8-(4-chloro-phenyl)-2-{4-[2-(4-methyl-piperazin-1-yl)-ethyl]-phenylamino}-5-oxo-5,8-dihydro-pyrido[2,3-d]pyrimidine-6-carboxylic acid amide] was 20 nM; that for `CCN1CCC(c2ccc(Nc3ncc4c(=O)c(C(=O)NOC)cn(C5CCC(C)(C)CC5)c4n3)cc2)CC1` [Cpd 208, 8-(4,4-dimethyl-cyclohexyl)-2-[4-(1-ethyl-piperidin-4-yl)-phenylamino]-5-oxo-5,8-dihydro-pyrido[2,3-d]pyrimidine-6-carboxylic acid methoxy-amide] was 0.4 nM; that for `CCc1ccc(-n2cc(C(=O)NOC)c(=O)c3cnc(Nc4ccc5c(c4)OCCOCCOCCOCCO5)nc32)cc1` [Cpd 297, 8-(4-ethyl-phenyl)-2-(6,7,9,10,12,13,15,16-octahydro-5,8,11,14,17-pentaoxa-benzocyclopentadecen-2-ylamino)-5-oxo-5,8-dihydro-pyrido[2,3-d]pyrimidine-6-carboxylic acid methoxy-amide] was 0.4 nM. Same read-out and setting: the value for `CONC(=O)c1cn(-c2ccc3c(c2)CCC3)c2nc(Nc3cccc(N4CCN(C)CC4)c3)ncc2c1=O` [Cpd 324, 8-indan-5-yl-2-[3-(4-methyl-piperazin-1-yl)-phenylamino]-5-oxo-5,8-dihydro-pyrido[2,3-d]pyrimidine-6-carboxylic acid methoxy-amide] was 0.5 nM.

On to `CN1CCN(CCc2ccc(Nc3ncc4c(=O)c(C(=O)N5CCCCC5)cn(-c5ccc6c(c5)CCC6)c4n3)cc2)CC1` [Cpd 64, 8-indan-5-yl-2-{4-[2-(4-methyl-piperazin-1-yl)-ethyl]-phenylamino}-6-(piperidine-1-carbonyl)-8H-pyrido[2,3-d]pyrimidin-5-one], for which the 50% inhibitory concentration (IC50) was 180 nM. For the compound `CONC(=O)c1cn(-c2ccc3c(c2)CCC3)c2nc(Nc3ccc(CCN4C5CCC4CC5)cc3)ncc2c1=O` [Cpd 110, 2-{4-[2-(7-aza-bicyclo[2.2.1]hept-7-yl)-ethyl]-phenylamino}-8-indan-5-yl-5-oxo-5,8-dihydro-pyrido[2,3-d]pyrimidine-6-carboxylic acid methoxy-amide], the IC50 amounted to 0.46 nM.

Consider `CCc1ccc(-n2cc(C(=O)NOC)c(=O)c3cnc(Nc4cccc(OCCCOC)c4)nc32)cc1` [Cpd 216, 8-(4-ethyl-phenyl)-2-[3-(3-methoxy-propoxy)-phenylamino]-5-oxo-5,8-dihydro-pyrido[2,3-d]pyrimidine-6-carboxylic acid methoxy-amide], for which the half-inhibitory concentration (IC50) was 1.6 nM. The same measure, in the same setting: the value for `CONC(=O)c1cn(-c2ccc3c(c2)CCC3)c2nc(Nc3ccc(CCNCCO)cc3)ncc2c1=O` [Cpd 97, 2-{4-[2-(2-hydroxy-ethylamino)-ethyl]-phenylamino}-8-indan-5-yl-5-oxo-5,8-dihydro-pyrido[2,3-d]pyrimidine-6-carboxylic acid methoxy-amide] was 0.63 nM; that for `CCc1ccc(-n2cc(C(=O)NOC)c(=O)c3cnc(Nc4ccc5c(c4)CNCC5)nc32)cc1` [Cpd 282, 8-(4-ethyl-phenyl)-5-oxo-2-(1,2,3,4-tetrahydro-isoquinolin-7-ylamino)-5,8-dihydro-pyrido[2,3-d]pyrimidine-6-carboxylic acid methoxy-amide] was 0.2 nM.

The same experiment, now with this note: c-fms Peptide IC50, 0.7 nM CSF-1R, 308 μM SYEGNSYTFIDPTQ peptide, 1 mM ATP, 80 min; mean of at least three determinations.
Compound `CONC(=O)c1cn(-c2ccc3c(c2)CCC3)c2nc(Nc3ccc(CCN4CCOCC4)cc3)ncc2c1=O` [Cpd 80, 8-indan-5-yl-2-[4-(2-morpholin-4-yl-ethyl)-phenylamino]-5-oxo-5,8-dihydro-pyrido[2,3-d]pyrimidine-6-carboxylic acid methoxy-amide] came in with an IC50 of 1.3 nM.

Source of the values: patent US20080114007A1 (priority 2006, published 2008).
